Laboratory results: ChEMBL document CHEMBL3297657, “Synthesis and antitumor activities of novel α-aminophosphonate derivatives containing an alizarin moiety” (Eur J Med Chem, 2014)

Columns and labels:
[1] = tested on: NCI-H460; assay: Induction of apoptosis in human NCI-H460 cells assessed as upregulation of TP53 mRNA expression after 24 hrs by qRT-PCR analysis; assay type: functional, cell-based
[2] = tested on: NCI-H460; assay: Induction of apoptosis in human NCI-H460 cells assessed as early apoptotic cells at 8 uM after 24 hrs by Annexin V/propidium iodide staining-based flow cytometry (reference value: 6.8%); assay type: functional
[3] = tested on: NCI-H460; assay: Induction of apoptosis in human NCI-H460 cells assessed as late apoptotic cells at 8 uM after 12 hrs by Annexin V/propidium iodide staining-based flow cytometry (reference value: 14.1%); assay type: functional
[4] = tested on: NCI-H460; assay: Cell cycle arrest in human NCI-H460 cells assessed as accumulation at G2 phase at 10 uM after 48 hrs by Rnase A/propidium iodide staining-based flow cytometry (reference value: 33.9%); assay type: functional
[5] = tested on: NCI-H460; assay: Induction of apoptosis in human NCI-H460 cells assessed as viable cells at 20 uM after 24 hrs by Annexin V/propidium iodide staining-based flow cytometry (reference value: 72.2%); assay type: functional; settings: NCI-H460, 24 h, read-out: Activity

Row | Structure (SMILES) | Activity [1] | Activity [2] | Activity [3] | Activity [4] | viability at 20 µM [5]
1 | CCOP(=O)(OCC)C(NC(=O)C(C)Oc1ccc2c(c1O)C(=O)c1ccccc1C2=O)c1cccc2ccccc12 (stereo not given) | Dose-dependent effect | 36.6% | 8.3% | 24.74% | 43.4%
2 | CCOP(=O)(OCC)C(NC(=O)C(C)Oc1ccc2c(c1O)C(=O)c1ccccc1C2=O)c1ccccc1OC (stereo not given) | Dose-dependent effect | 38.9% | 5.6% | 29.38% | 30.7%
3 | CCOP(=O)(OCC)C(NC(=O)C(C)Oc1ccc2c(c1O)C(=O)c1ccccc1C2=O)c1ccccc1F (stereo not given) | Dose-dependent effect | 38.8% | 7.9% | 20.77% | 33.6%
